The OPERA property sets (Mansouri et al. 2018)

Settings: for log10 BCF / log10 biotransformation half-life (days): fish

Row | SMILES | boiling point [°C] | melting point [°C] | also measured
1 | C1=CCNC1 | 90.5 | – | –
2 | ClC1=CCCCC1 | 142 | – | –
3 | COc1ccccc1N1CCN(CCCNc2cc(=O)n(C)c(=O)n2C)CC1 | – | 157 | –
4 | CN(C)S(=O)(=O)N(SC(F)(Cl)Cl)c1ccccc1 | – | 106 | log10 vapour pressure (mmHg): -6.95; ready biodegradability: not readily biodegradable
5 | CC(C)CN(C)C | 80.5 | – | –
6 | OCCOCCO | 246 | -10.4 | log10 vapour pressure (mmHg): -2.24; ready biodegradability: readily biodegradable
7 | CCOC(=O)/C=C\C(=O)OCC | 218 | -3.65 | log10 vapour pressure (mmHg): -0.979
8 | Nc1ccccc1I | – | 56.5 | –
9 | COc1ccc(C)cc1 | 176 | -32 | –
10 | CN[C@@H](C)[C@H](O)c1ccccc1 | 255 | – | –
11 | C=CC(=O)OC1CCCCC1C (stereo not given) | 210 | – | –
12 | O=C(O)COc1nc(Cl)c(Cl)cc1Cl | – | 149 | log10 Koc (L/kg): 1.67; log10 vapour pressure (mmHg): -5.9
13 | c1ccc(-c2cccnc2)cc1 | 272 | 164 | –
14 | C=CSC=C | 84 | 20 | –
15 | FC(F)(F)N1C(F)(F)C(F)(F)OC(F)(F)C1(F)F | 51 | -80 | –
16 | NC1=NCC(c2ccccc2)O1 (stereo not given) | – | 136 | –
17 | C1SSCSSS1 | – | 60.5 | –
18 | CC(C)(C)NSc1nc2ccccc2s1 | – | – | log10 vapour pressure (mmHg): -6.34
19 | CCC(CC)OC(C)=O | 133 | – | –
20 | CCOC(=O)C=[N+]=[N-] | – | -22 | log10 vapour pressure (mmHg): 0.447
21 | CCOC(C)(OCC)OCC | 145 | – | –
22 | CC1(C)[C@H]2CC[C@]1(C)C(=O)[C@H]2O | – | 206 | –
23 | CCCCCC1CCCC1 | 180 | -83 | –
24 | Nc1ccc(S(=O)(=O)Nc2ccnn2-c2ccccc2)cc1 | – | 181 | –
25 | CC1=CC(=O)NS(=O)(=O)O1 | – | 123 | –

Row | SMILES | boiling point [°C] | melting point [°C] | also measured
26 | C=CC=CCC | 73.5 | – | log10 vapour pressure (mmHg): 2.11
27 | COc1cccc(Nc2ccccc2)c1 | – | 73 | –
28 | C=CC(F)(F)F | -17 | – | log10 vapour pressure (mmHg): 3.64
29 | CCOC(CCCN)OCC | 196 | – | –
30 | Cc1cc(C)on1 | 143 | – | –
31 | CC(O)C(C)O (racemic) | 182 | 16.3 | log10 vapour pressure (mmHg): -0.677
32 | Cc1cc(NC(N)=O)ccc1F | – | – | log10 Koc (L/kg): 1.75
33 | CN(C)C(O)=Nc1ccc(-n2nc(C(C)(C)C)oc2=O)c(Cl)c1 | – | 193 | –
34 | CC(C1CC1)C(O)(Cn1cncn1)c1ccc(Cl)cc1 (stereo not given) | – | 108 | log10 vapour pressure (mmHg): -6.59
35 | C#CC(OCC)OCC | 139 | – | –
36 | Cc1ccc(Br)cc1Br | – | -9.7 | –
37 | O=C(c1ccc(O)cc1)c1ccc(O)cc1 | – | 210 | –
38 | CCCCNC(N)=O | – | 97 | –
39 | CCCCCCCCCCCCCCCCCCCl | 348 | 28.6 | log10 vapour pressure (mmHg): -4.77
40 | CCc1ccc(O)cc1O | – | 98.5 | –
41 | CC(=O)N=c1sc(S(N)(=O)=O)nn1C | – | 214 | –
42 | CC(=O)O[C@@]12CO[C@@H]1C[C@H](O)[C@@]1(C)C(=O)[C@H](O)C3=C(C)[C@@H](OC(=O)[C@H](O)[C@@H](NC(=O)OC(C)(C)C)c4ccccc4)C[C@@](O)([C@@H](OC(=O)c4ccccc4)[C@H]21)C3(C)C | – | 232 | –
43 | COc1ccc(Nc2ccc(OC)cc2)cc1 | – | – | ready biodegradability: not readily biodegradable
44 | N#CCc1cccc2ccccc12 | – | 32.5 | –
45 | O=C(O)COc1ccc(C(=O)c2cccs2)c(Cl)c1Cl | – | 149 | –
46 | ClCCCCl | 121 | -99.5 | log10 Henry constant (atm·m³/mol): -3.01; log10 vapour pressure (mmHg): 1.26
47 | CC1=CC[C@@H]2C[C@@H](C[C@]3(CC[C@H](C)[C@@H](C)O3)O2)OC(=O)[C@@H]2C=C(C)[C@@H](O)[C@H]3OCC(=CC=C[C@H](C)C1)[C@]32O | – | 214 | –
48 | CCOC(=O)c1ccc(-c2ccc(C(=O)OCC)c(C(=O)OCC)c2)cc1C(=O)OCC | – | – | ready biodegradability: readily biodegradable
49 | C=COCCOCCOC=C | 198 | – | log10 vapour pressure (mmHg): -1.64
50 | FC(F)CC(F)(F)F | 40 | -102 | log10 vapour pressure (mmHg): 3.05

Row | SMILES | boiling point [°C] | melting point [°C] | also measured
51 | CC(=O)OOC(=O)c1ccccc1 | – | 37 | –
52 | CCOP(=O)(OCC)Oc1ccc([N+](=O)[O-])cc1 | – | 300 | log10 vapour pressure (mmHg): -5.96
53 | Oc1ccccc1Cl | 175 | 9.8 | log10 Henry constant (atm·m³/mol): -4.95; log10 Koc (L/kg): 2.6; log10 vapour pressure (mmHg): 0.403; ready biodegradability: not readily biodegradable; log10 BCF: 1.35; log10 biotransformation half-life (days): -0.38
54 | Cc1ccccc1NC=O | 288 | 62 | –
55 | CCCCCCCOC(=O)CC | 210 | -50.9 | –
56 | c1ccc(-c2cc(-c3ccccc3)cc(-c3ccccc3)c2)cc1 | 462 | 176 | –
57 | CCN(CC)c1ccc(C)cc1 | 229 | – | –
58 | Cn1c(=O)c2[nH]cnc2n(C)c1=O | – | 273 | –
59 | CCC(CC)(CC)C(C)C | 172 | – | –
60 | O=C(O)c1ccccc1Cl | 287 | 140 | log10 vapour pressure (mmHg): -3.18; ready biodegradability: not readily biodegradable; log10 BCF: 1
61 | CCCCCCCCCCCC(=O)OC | 267 | 5.2 | log10 vapour pressure (mmHg): -2.39; ready biodegradability: readily biodegradable
62 | C/C=C/C(=O)N(CC)c1ccccc1C | – | – | ready biodegradability: not readily biodegradable
63 | Cc1ccsc1Br | 176 | – | –
64 | OCCCCC(F)(F)F | 148 | – | –
65 | CC(C)ON=O | 40 | – | –
66 | CCOc1cccc([N+](=O)[O-])c1 | 264 | 36 | –
67 | O=C(C1CCCCC1)N1CC(=O)N2CCc3ccccc3C2C1 (stereo not given) | – | 136 | –
68 | CNC(=C[N+](=O)[O-])NCCSCc1ccc(CN(C)C)o1 | – | 69.5 | –
69 | ClC1C(Cl)C(Cl)C(Cl)C(Cl)C1Cl (stereo not given) | – | – | log10 biotransformation half-life (days): 1.49
70 | Oc1c(O)c(Br)c(Br)c(Br)c1Br | – | 191 | –
71 | NC(=O)c1nc(-c2ccccc2)n(-c2ccc(Cl)c(COCC(F)(F)C(F)(F)F)c2)n1 | – | 146 | –
72 | CNC(=O)Oc1cc(C)c(C)c(C)c1 | – | 109 | log10 Koc (L/kg): 2.6; log10 vapour pressure (mmHg): -4.29
73 | C[C@H]1O[C@H](O[C@H]2CC[C@H](n3ccc(NC(=O)c4ccc(NC(=O)[C@@](C)(N)CO)cc4)nc3=O)O[C@@H]2C)[C@H](O)[C@@H](O)[C@@H]1N(C)C | – | 167 | –
74 | CC(=O)CCCCO | 227 | – | –
75 | c1ccc(-c2ccc(-c3ccccc3)o2)cc1 | 344 | 91 | –

Row | SMILES | boiling point [°C] | melting point [°C] | also measured
76 | ClCc1cccc2ccccc12 | 292 | 32 | –
77 | CCCCCCC/C=C\C(=O)O | – | 12 | –
78 | Nc1nc2nn[nH]c2c(=O)[nH]1 | – | 300 | –
79 | CC(C)CCCCCOC(=O)c1ccccc1C(=O)OCCCCCC(C)C | – | – | log10 Koc (L/kg): 3.21; log10 vapour pressure (mmHg): -5.26
80 | ClC=CCl | 55 | -57 | log10 Henry constant (atm·m³/mol): -2.39; log10 vapour pressure (mmHg): 2.3; ready biodegradability: not readily biodegradable
81 | CCCCCCCCCc1cccc2ccccc12 | 366 | 8 | –
82 | CCCCCCCCCC(=O)CCCCCCCCC | – | 65.5 | –
83 | CC=CCCCCCCCCO | 248 | 6 | –
84 | O=C1CCCCCCCCCCCN1 | – | 152 | ready biodegradability: not readily biodegradable; log10 BCF: 0.41
85 | CC(C#N)c1ccccc1 (stereo not given) | 231 | – | –
86 | BrCC(Br)CBr | 222 | 16.9 | –
87 | Nc1ccnc2ccccc12 | – | 155 | –
88 | CC(=O)Nc1ccc2c(c1)Cc1ccccc1-2 | 303 | 193 | log10 Koc (L/kg): 3.14
89 | O=c1n(Cl)c(=O)n(Cl)c(=O)n1Cl | – | – | ready biodegradability: not readily biodegradable
90 | COP(=S)(OC)Oc1nc(Cl)c(Cl)cc1Cl | – | 43 | log10 Koc (L/kg): 3.52; log10 vapour pressure (mmHg): -4.38
91 | CCCN(CCC)C(C)=O | 210 | – | –
92 | CC(C)(C)CC(=O)OCC(=O)[C@@]12OC(C)(C)O[C@@H]1C[C@H]1[C@@H]3CCC4=CC(=O)C=C[C@]4(C)[C@@]3(F)[C@@H](O)C[C@@]12C | – | 295 | –
93 | CC(C)N(C(=O)SCC(Cl)=C(Cl)Cl)C(C)C | – | 29 | log10 Koc (L/kg): 3.35; log10 vapour pressure (mmHg): -3.92
94 | CCc1cccc(C)c1N(C(=O)CCl)C(C)COC (stereo not given) | – | -51 | log10 Henry constant (atm·m³/mol): -8.05; log10 Koc (L/kg): 2.46; log10 vapour pressure (mmHg): -4.5
95 | COc1cccc(N)c1 | 251 | -1 | log10 vapour pressure (mmHg): -1.12; ready biodegradability: not readily biodegradable
96 | CCCCOC(=O)CCl | 183 | – | –
97 | CC=CC=C(C)C | 112 | -74.2 | –
98 | O=C(NC(=O)c1c(F)cccc1F)Nc1cc(Cl)c(OC(F)(F)C(F)F)c(Cl)c1 | – | 204 | –
99 | CCCc1cc(=O)[nH]c(=S)[nH]1 | – | 219 | ready biodegradability: not readily biodegradable
100 | CC(=O)/C=C/C1C(C)=CCCC1(C)C (stereo not given) | – | – | log10 vapour pressure (mmHg): -1.76

Row | SMILES | boiling point [°C] | melting point [°C] | also measured
101 | C=COC(=O)CCCCC | – | – | ready biodegradability: readily biodegradable
102 | NS(=O)(=O)c1ccc(Cl)c(S(N)(=O)=O)c1 | – | 207 | –
103 | O=[N+]([O-])c1cc([N+](=O)[O-])c2ccccc2c1 | – | 148 | –
104 | c1csc(-c2ccc(-c3cccs3)s2)c1 | – | 93.5 | –
105 | Cc1ccc(C(C)C)c(OC(=O)NCCC(C)C)c1 | – | 57 | –
106 | C=C[Si](C)(C)OCC | 99 | – | –
107 | C[Si](C)(C)O[Si](C)(C)O[Si](C)(C)O[Si](C)(C)O[Si](C)(C)O[Si](C)(C)O[Si](C)(C)O[Si](C)(C)C | – | – | log10 vapour pressure (mmHg): -2.5
108 | Clc1cccc2c1Oc1ccccc1O2 | – | 104 | log10 vapour pressure (mmHg): -4.05
109 | O=[N+]([O-])c1cc(Br)ccc1Br | – | 85.5 | –
110 | Nc1c(Cl)cc([N+](=O)[O-])cc1Cl | – | 191 | log10 Koc (L/kg): 3; log10 vapour pressure (mmHg): -5.92; ready biodegradability: not readily biodegradable
111 | C=C1C[C@H]2[C@@H]3CCC4=CC(=O)C=C[C@]4(C)[C@H]3[C@@H](O)C[C@]2(C)[C@@]1(O)C(=O)CO | – | 234 | –
112 | CC/C(=C(/CC)c1ccc(O)cc1)c1ccc(O)cc1 | – | – | log10 Koc (L/kg): 4.14
113 | CCC=CCC(=O)OCC | 166 | – | –
114 | ClC1CC2CCC1C2 (stereo not given) | 162 | -5 | –
115 | COCCOC(=O)c1ccccc1C(=O)OCCOC | 340 | -45 | –
116 | CCOC(O)C(F)(F)F (stereo not given) | 104 | – | –
117 | O=C(C[N+](=O)[O-])Nc1ccccc1 | – | 94 | –
118 | CCCCCCC1CCCC1 | 203 | -73 | –
119 | O=[N+]([O-])c1cncn1CCN1CCOCC1 | – | 110 | –
120 | Cc1cn([C@H]2C[C@H](F)[C@@H](CO)O2)c(=O)[nH]c1=O | – | 177 | –
121 | Cc1ccnc(Cl)c1 | 192 | 115 | –
122 | O=C1c2ccccc2Cc2ccccc21 | – | 155 | –
